The values that follow come from US5733559A, “Controlled release inclusion system of glycolic acid in β-cyclo-dextrin and process for the above system preparation” (priority 1995, dated 1998).

The test system of series [1] is cutaneous area (volar surfaces of the forearm). Briefly: Patch test (epicutaneous test): cutaneous irritation by occlusive application, average index of cutaneous irritation (IIM). The source says:
The first series of tests consisted in the test of cutaneous irritation or epicutaneous test (Patch Test) by means of occlusive application.
(§1) Free glycolic acid 70% (AG)--Du Pont
Ten healthy subjects were selected, of both sex, with negative anamnesis for allergic dermatitis by contact (DAC) and without any other pathology in process during the execution of the Test.
The ready to use plasters for dermoreactions used for the Patch Test were made of white "non woven fabric" with a dermatophilic mass of acrylic adhesive, in the shape of 1 cm diameter disc, covered by small squares of polyethylene.
The test was performed as follows: after cleansing with 70% alcoholic solution (denatured ethyl alcohol the cutaneous area to be treated (volar surfaces of the forearm), occlusive applications of the substance under examination were carried out for one hour. After that period, the plasters were removed and 15 minutes later the cutaneous reaction was evaluated and classified on the basis of an arbitrary scale.
The cutaneous reactions considered were:
According to the arbitrary scale used for the classification of the cutaneous reactions, 0 corresponds to the absence of reaction, 1 point to a light degree, 2 points to a moderate degree of reaction and 3 points to a reaction of serious gravity.
For each volunteer scores were recorded for each parameter and the mean value was calculated. […]

The subject of series [2] is skin of the face (periocular and zygomatic zone). Briefly: Non occlusive application: cutaneous tolerability test on the face. On the procedure:
For the second series of tests cutaneous irritation was determined following non-occlusive applications.
Non occlusive application
as §1
Eight healthy volumary women were chosen, aged between 30 and 50 (average age 37,5).
The samples were applied on one half of the face (periocular and zygomatic zone) using a badger brush. The duration of the application was decided according to the type of skin and to the cutaneous reaction of the individual volunteer. 5 applications were carried out, one every three or more days according to the subjects.
The irritating effect was assessed before the application and one hour after the application.
The parameters considered to clinically evaluate the irritating degree of the substance under examination were the following:
irritative symptoms: erythema, pruritus, burning, desquamation, blistering, eczematous reaction.
The irritating effect was assessed on the basis of an arbitrary scale, based on clinical experience, recorded as follows:
1=Modest reaction (slight reddening, pruritus)
2=Irritative reaction (erythema, pruritus, desquamation)
3=Strong irritative reaction (erythema, burning, strong pruritus, desquamation, and more)
After every application the cutaneous reactions of each volunteer were evaluated and a relative score was given.

[3] abbreviates: application time 3 min, 50% concentration, pH 2,5, right side of face, one value per subject.

SMILES strings stand for the structures. Values joined by “and” are separate entries in the source; they are usually repeats but may differ in a detail not shown here. Identical values can stand only once.

For `O=C(O)CO` [AG, glycolic acid], in series [1] (10% concentration), the “average index of cutaneous irritation of AG compared to that of CCAG” value is “significantly and appreciably higher”. The “average index of cutaneous irritation of free glycolic acid compared to that of glycolic acid complexed with cyclodextrins” value in series [1] (at comparable concentrations (5%)) is on record as “slightly higher”. Besides, the “case of average to serious irritation after the second application, requiring suspension of the treatment” value in series [2] (8 subjects, right side periocular and zygomatic area) is “one”. Besides, the “irritation score (arbitrary scale 0-3), 1st application” value in series [2] (application time 1 min, 50% concentration, pH 2,5, AG right side, CCAG left side of face, one value per subject) stood at 0. For the same molecule, the “irritation score (arbitrary scale 0-3), 2nd application” value in series [2] (application time 2 min, 50% concentration, pH 2,5, AG right side, CCAG left side of face, one value per subject) is 2/3 and 0. Also, the “irritation score (arbitrary scale 0-3), 3rd application” value in series [2] (application time 3 min, 50% concentration, pH 2,5, AG right side, CCAG left side of face, one value per subject) is 2 and 0. Further, in series [2] (setting [3]), the “irritation score (arbitrary scale 0-3), 4th application, AG” value is 0 and the “irritation score (arbitrary scale 0-3), 5th application, AG” value is recorded as 0. In series [2] (in vivo), the “cases of irritation of average gravity after the third application” value turned out to be 2 cases; the “cases of irritation of grade 2 and 2/3” value is 3 cases. Also, in series [2] (subject 1, second application), the “irritation because of which subject 1 had to suspend treatment” value is recorded as “average to serious irritation”.
